# Data: the supplement of paper PMC10307832
# Assays:
# Experiment in all cases: relative viability (nuclei count vs DMSO), 5 days (fraction); higher = more cells survive
# [1] = compound: CC1=C(CC(=O)O)c2cc(F)ccc2/C1=C\c1ccc([S+](C)[O-])cc1 [Sulindac] + O=C(CCCCCCC(=O)Nc1ccccc1)NO [Vorinostat] (partner 1 µM)
# How it was run: (§1)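 For relative viability, nuclei counts in treated wells were divided by those in vehicle wells. Lung cancer cell lines had been pin-tool dosed in 1536-well plates the day after seeding and cultured for 5 days, then fixed and stained in one step (final 0.05% Triton X-100, 1% formaldehyde, 1 ug/ml Hoechst) and imaged at 4×. Doses were one drug alone or a fixed anchor-drug dose plus five library-drug doses (not always all listed) in √10 steps, and values are duplicate-plate medians.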
# [2] = compound: O=c1[nH]cc(F)c(=O)[nH]1 [5-Fluorouracil] + Cc1nc(NC(=O)N2CCC[C@H]2C(N)=O)sc1-c1ccnc(C(C)(C)C(F)(F)F)c1 [Alpelisib] (partner 2 µM)
# How it was run: as §1
# [3] = compound: CC1=C(CC(=O)O)c2cc(F)ccc2/C1=C\c1ccc([S+](C)[O-])cc1 [Sulindac] + COc1cccc2cc(-c3nc([C@H]4CC[C@H](C(=O)O)CC4)n4ncnc(N)c34)[nH]c12 [OSI-027] (partner 0.5 µM)
# How it was run: as §1
# [4] = compound: CN[C@@H]1C[C@H]2O[C@@](C)([C@@H]1OC)n1c3ccccc3c3c4c(c5c6ccccc6n2c5c31)C(=O)NC4 [Staurosporine] + COc1cccc2cc(-c3nc([C@H]4CC[C@H](C(=O)O)CC4)n4ncnc(N)c34)[nH]c12 [OSI-027] (partner 0.5 µM)
# How it was run: as §1
Cell Line,relative viability ([1]; first compound 0.08 µM),relative viability ([1]; first compound 0.253 µM),relative viability ([1]; first compound 0.8 µM),relative viability ([1]; first compound 2.53 µM),relative viability ([1]; first compound 8 µM),relative viability ([2]; first compound 0.02 µM),relative viability ([2]; first compound 0.2 µM),relative viability ([2]; first compound 0.6325 µM),relative viability ([2]; first compound 2 µM),relative viability ([3]; first compound 0.08 µM),relative viability ([3]; first compound 0.253 µM),relative viability ([3]; first compound 2.53 µM),relative viability ([3]; first compound 8 µM),relative viability ([4]; first compound 0.005 µM),relative viability ([4]; first compound 0.01581 µM),relative viability ([4]; first compound 0.05 µM),relative viability ([4]; first compound 0.1581 µM),relative viability ([4]; first compound 0.5 µM),relative viability ([3]; first compound 0.8 µM)
NCI-H2087,1.02,0.622,0.561,0.662,0.722,0.977,0.923,0.659,0.536,0.67,0.595,0.46,0.567,0.366,0.135,0.147,0.106,0.107,
NCI-H358,0.842,0.722,0.601,0.669,0.897,0.935,0.817,1.04,0.434,0.941,0.891,0.727,0.891,0.809,0.157,0.0851,0.0615,0.0427,0.657
H3255,0.765,0.723,0.661,0.695,0.819,0.721,0.816,0.833,0.496,0.523,0.622,0.576,0.593,0.408,0.339,0.265,0.216,0.182,0.474
NCI-H23,0.577,0.684,0.607,0.38,0.702,0.687,0.728,0.425,0.312,0.678,,0.583,0.72,0.518,,0.248,0.16,0.0998,0.602
CAL-12T,0.783,0.858,0.671,0.821,1.07,1.47,1.22,1.02,0.425,0.534,0.847,0.61,0.696,0.196,0.142,0.166,0.152,0.09,0.51
A-427,0.829,0.84,0.953,0.84,0.995,1.06,1.12,0.957,,0.495,0.474,0.459,0.584,0.363,0.158,0.153,,0.121,0.443
HARA,0.474,0.675,0.425,0.512,0.461,0.902,0.925,0.809,0.748,0.553,0.549,0.488,0.602,0.448,,0.128,0.0628,0.0398,0.447
NCI-H1793,0.726,0.716,,0.637,0.68,0.673,0.658,0.543,0.493,0.218,0.359,0.243,0.258,0.378,,0.174,0.0897,0.102,0.236
NCI-H2023,0.945,0.879,0.582,0.652,0.685,0.456,0.256,0.124,0.0987,0.501,0.509,0.387,0.389,0.185,0.101,0.084,0.0704,0.0498,0.399
ABC-1,1.01,1.27,1.14,0.74,1.09,1.11,1.16,0.896,0.92,0.503,0.447,0.466,0.489,0.209,0.14,0.0972,0.0855,0.0778,0.361
NCI-H441,1.02,0.936,0.599,0.782,0.981,0.792,0.644,0.563,0.411,0.627,0.597,0.679,0.759,0.368,0.188,0.175,0.176,0.137,0.416
NCI-H1915,0.555,0.577,0.508,0.539,0.574,1.04,1.04,0.963,0.83,0.764,0.688,0.678,0.625,0.448,0.115,0.193,0.0877,0.111,
LXF-289,0.867,0.797,0.636,0.83,0.797,1.03,0.595,0.353,0.286,0.829,0.863,0.753,0.844,0.215,0.0608,0.116,0.0713,0.051,0.749
HCC-827,0.908,0.935,0.743,0.805,0.88,0.777,0.888,0.681,0.451,0.913,0.777,0.798,0.761,0.875,0.672,0.476,0.383,0.211,0.573
EMC-BAC-2,0.559,0.405,0.367,0.426,0.528,0.733,0.773,0.801,0.768,0.375,0.407,0.371,0.473,0.211,0.177,0.161,0.224,0.177,0.311
NCI-H647,0.604,0.952,0.409,0.628,0.549,0.897,0.915,1.06,0.767,0.63,0.947,0.677,0.683,0.29,0.123,0.149,0.0899,0.0651,0.487
NCI-H2009,0.84,0.84,0.748,0.649,0.81,1.17,1.15,0.937,0.607,0.732,0.77,0.626,0.731,0.233,,0.163,0.123,0.082,0.582

Cell Line,relative viability ([1]; first compound 0.08 µM),relative viability ([1]; first compound 0.253 µM),relative viability ([1]; first compound 0.8 µM),relative viability ([1]; first compound 2.53 µM),relative viability ([1]; first compound 8 µM),relative viability ([2]; first compound 0.02 µM),relative viability ([2]; first compound 0.2 µM),relative viability ([2]; first compound 0.6325 µM),relative viability ([2]; first compound 2 µM),relative viability ([3]; first compound 0.08 µM),relative viability ([3]; first compound 0.253 µM),relative viability ([3]; first compound 2.53 µM),relative viability ([3]; first compound 8 µM),relative viability ([4]; first compound 0.005 µM),relative viability ([4]; first compound 0.01581 µM),relative viability ([4]; first compound 0.05 µM),relative viability ([4]; first compound 0.1581 µM),relative viability ([4]; first compound 0.5 µM),relative viability ([3]; first compound 0.8 µM)
NCI-H2347,0.668,0.702,0.46,0.713,0.593,1.09,0.709,0.457,0.447,0.398,0.363,0.301,0.511,0.385,0.229,0.171,0.277,0.238,
NCI-H1437,0.951,0.872,0.749,0.837,0.876,,0.226,0.171,0.111,1.01,1,0.811,0.96,0.744,,0.587,0.183,0.181,0.767
SK-MES-1,1.43,1.25,1.09,1.23,1.16,0.798,0.789,0.447,0.341,0.781,0.823,0.609,0.631,0.202,0.18,0.147,0.134,0.106,0.55
NCI-H3122,0.98,0.752,0.762,0.964,1.13,0.796,0.653,0.371,0.246,1.07,1.02,0.937,1.13,1.25,,0.857,0.155,0.0733,0.864
NCI-H2085,0.728,0.814,0.77,0.652,0.818,0.689,1.03,0.828,0.613,0.8,0.822,0.831,0.755,0.597,0.168,0.249,0.155,0.148,0.674
PC-3 [JPC-3],0.839,0.786,0.647,0.778,0.967,0.913,1.04,0.838,0.708,0.715,0.797,0.752,0.728,0.678,0.295,0.39,0.303,0.229,0.614
NCI-H838,0.736,0.777,0.762,0.726,0.713,0.874,0.882,0.484,0.29,0.382,0.424,0.358,0.388,0.207,0.153,0.196,0.162,,0.367
NCI-H1755,0.751,0.772,0.754,0.77,0.753,0.896,0.74,0.294,0.259,0.776,0.64,0.733,0.763,0.344,0.268,0.209,0.189,0.18,0.661
NCI-H650,0.506,0.429,0.334,0.379,0.579,0.915,0.644,0.523,0.397,0.506,0.523,0.545,0.566,0.34,0.271,0.257,0.277,0.255,0.523
NCI-H1944,0.604,0.62,0.506,0.574,0.571,0.804,0.763,0.351,0.211,0.424,0.43,0.421,0.412,0.322,0.153,0.257,0.166,0.119,0.353
LK-2,0.292,0.258,0.234,0.289,0.228,1.3,0.606,0.803,0.578,0.186,0.209,0.17,0.21,0.256,0.158,0.244,0.151,0.111,0.201
HCC-15,0.94,0.885,0.738,0.835,0.975,0.921,0.836,0.494,0.29,0.77,0.716,0.634,0.667,0.565,,0.296,0.113,0.0919,0.526
PC-14,0.873,0.9,0.629,0.645,0.855,1.02,0.962,0.748,0.424,1.3,1.2,0.886,1.09,0.325,0.0499,0.0618,0.0552,0.0305,
HOP-62,0.826,0.88,0.526,0.598,0.796,0.835,1.03,0.844,0.754,0.825,0.976,0.946,0.91,0.554,0.225,0.125,0.112,0.0933,
NCI-H322M,0.859,0.914,0.882,0.916,0.863,0.772,0.785,0.609,0.5,0.6,0.534,0.557,0.602,0.619,0.309,0.292,0.294,0.235,0.442
NCI-H1395,0.662,0.832,0.641,0.682,0.959,1.1,1.02,1.14,0.844,0.668,0.72,0.58,0.77,0.605,0.395,0.42,0.249,0.239,0.675
NCI-H661,0.936,0.812,0.693,0.814,0.852,0.598,1.12,0.597,0.612,0.735,0.838,0.711,0.797,0.641,0.413,0.346,0.201,0.166,0.622
